Only the 19 paired bases of each siRNA are shown; overhangs and chemistry are not given here.

Drawing on the OligoGym collection, this text covers target inhibition for 80 substances.

Among the targets are PTEN; ICAM1; LMNA.
What all share (experiment): five studies, different assays
Settings in all cases: siRNA
Further: test concentration or dose not given here.

For the substance “sense AGUGAAUCUGUAUUGGGGU / antisense ACCCCAAUACAGAUUCACU”, the target inhibition with PTEN stood at 39%.

For “sense AAGUCUAGCCUGAUGAGAG / antisense CUCUCAUCAGGCUAGACUU”, the target inhibition in the data set with ICAM1 amounted to 50%.

As for “sense AUAAAGACAAAGCCAACCG / antisense CGGUUGGCUUUGUCUUUAU”, in the data set with PTEN, the target inhibition was 0%.

Take “sense AUACAGGAACAAUAUUGAU / antisense AUCAAUAUUGUUCCUGUAU”: the target inhibition with PTEN came out at 49%.

For the substance “sense UUUCCAUCCUGCAGAAGAA / antisense UUCUUCUGCAGGAUGGAAA”, the target inhibition with PTEN is 27%.

“sense CUUGACCUAUAUUUAUCCA / antisense UGGAUAAAUAUAGGUCAAG”: in the data set with PTEN, the target inhibition is 48%.

For “sense GGAUGCCAGCUUGGGCACU / antisense AGUGCCCAAGCUGGCAUCC”, in the data set with ICAM1, the target inhibition came out at 40%.

As for “sense AAGAAACACAGCAACAAUG / antisense CAUUGUUGCUGUGUUUCUU”, the target inhibition with PTEN was determined as 30%.

With “sense AAAGGUGAAGAUAUAUUCC / antisense GGAAUAUAUCUUCACCUUU”, the target inhibition in the data set with PTEN is 9%.

For “sense UUACCAGUUAUAGGAACAA / antisense UUGUUCCUAUAACUGGUAA”, the target inhibition with PTEN was found to be 40%.

As for “sense CCUCUUGGCAGCCAGUGGG / antisense CCCACUGGCUGCCAAGAGG”, the target inhibition with ICAM1 came out at 18%.

In the case of “sense CCAGGUCCACCUGGCACUG / antisense CAGUGCCAGGUGGACCUGG”, the target inhibition in the data set with ICAM1 was determined as 21%.

Turning to “sense GAUUCUGACGAAGCCAGAG / antisense CUCUGGCUUCGUCAGAAUC”, the target inhibition with ICAM1 is -10%.

Take “sense CUCUGGCUGCUGAGGAGAA / antisense UUCUCCUCAGCAGCCAGAG”: the target inhibition with PTEN came to 52%.

Regarding “sense CAUUGGCCAACCUGCCUUU / antisense AAAGGCAGGUUGGCCAAUG”, the target inhibition with ICAM1 came to 28%.

In the case of “sense GACGUGUGCAGUAAUACUG / antisense CAGUAUUACUGCACACGUC”, the target inhibition with ICAM1 stood at 30%.

Consider “sense UAUAAGAAGGAGCUGGAGA / antisense UCUCCAGCUCCUUCUUAUA”, for which the target inhibition with LMNA is 90%.

As to “sense GAAGUGGCCAUGCGCAAGC / antisense GCUUGCGCAUGGCCACUUC”, the target inhibition with LMNA came out at 70%.

For the substance “sense ACGGUGCUGGUGAGGAGAG / antisense CUCUCCUCACCAGCACCGU”, the target inhibition with ICAM1 is -20%.

On to “sense UGGAGAAGACUUAUUCUGC / antisense GCAGAAUAAGUCUUCUCCA”, for which, in the data set with LMNA, the target inhibition is 81%.

As for “sense GUCAUCAUCACUGUGGUAG / antisense CUACCACAGUGAUGAUGAC”, the target inhibition with ICAM1 turned out to be 35%.

As to “sense AGUGAUCCUCCCACCUCAG / antisense CUGAGGUGGGAGGAUCACU”, the target inhibition in the data set with ICAM1 was found to be 45%.

On to “sense GUAUAAGAAGGAGCUGGAG / antisense CUCCAGCUCCUUCUUAUAC”, for which the target inhibition in the data set with LMNA was 96%.

As to “sense AGUCGACGCUGAGCUCCUC / antisense GAGGAGCUCAGCGUCGACU”, the target inhibition in the data set with ICAM1 came out at 0%.

Regarding “sense UCAGAGUUGCAACCUCAGC / antisense GCUGAGGUUGCAACUCUGA”, the target inhibition in the data set with ICAM1 came to 1%.

In the case of “sense GCCAAAGAAAAAUAACCCU / antisense AGGGUUAUUUUUCUUUGGC”, the target inhibition in the data set with LMNA was determined as 96%.

Consider “sense GAGGUGGUCAGCCGCGAGG / antisense CCUCGCGGCUGACCACCUC”, for which the target inhibition in the data set with LMNA amounted to 80%.

As to “sense CCUACCAGCUCCAGACCUU / antisense AAGGUCUGGAGCUGGUAGG”, in the data set with ICAM1, the target inhibition came out at 45%.

Turning to “sense CCAACCAAUGUGCUAUUCA / antisense UGAAUAGCACAUUGGUUGG”, in the data set with ICAM1, the target inhibition came out at 7%.

Regarding “sense UCUGGUCACCCGCUCCUAC / antisense GUAGGAGCGGGUGACCAGA”, the target inhibition with LMNA came to 83%.

Take “sense AACACACAAGCCACGCCUC / antisense GAGGCGUGGCUUGUGUGUU”: the target inhibition in the data set with ICAM1 came out at 1%.

Consider “sense GCUGGACAAUGCCAGGCAG / antisense CUGCCUGGCAUUGUCCAGC”, for which the target inhibition in the data set with LMNA was found to be 84%.

Take “sense UAGGCUCACAACACCACAC / antisense GUGUGGUGUUGUGAGCCUA”: the target inhibition with ICAM1 stood at 41%.

With “sense UAUUGGGUAUGCUGAGGCC / antisense GGCCUCAGCAUACCCAAUA”, in the data set with ICAM1, the target inhibition was found to be 43%.

As to “sense AAGGAGUUGCUCCUGCCUG / antisense CAGGCAGGAGCAACUCCUU”, the target inhibition with ICAM1 was -15%.

As for “sense ACCUCUGUCGGGCCAGGAG / antisense CUCCUGGCCCGACAGAGGU”, the target inhibition with ICAM1 came out at 5%.

As to “sense CUCAGCGGUCAUGUCUGGA / antisense UCCAGACAUGACCGCUGAG”, in the data set with ICAM1, the target inhibition turned out to be 33%.

Regarding “sense UGAACCUAUCCCGGGACAG / antisense CUGUCCCGGGAUAGGUUCA”, the target inhibition with ICAM1 worked out at 20%.

For the substance “sense AGCUCCUGCUGAAGGCCAC / antisense GUGGCCUUCAGCAGGAGCU”, in the data set with ICAM1, the target inhibition amounted to 10%.

Take “sense UGUGUGUGUGUGUAUGUGU / antisense ACACAUACACACACACACA”: the target inhibition with ICAM1 is 7%.

For the substance “sense CCAUGGUACCUGCACACCU / antisense AGGUGUGCAGGUACCAUGG”, the target inhibition with ICAM1 stood at 75%.

As to “sense UUGCACUAUUGCAGCUCCA / antisense UGGAGCUGCAAUAGUGCAA”, the target inhibition in the data set with ICAM1 worked out at 5%.

Take “sense GGGACAGGGCCUCUUCCUC / antisense GAGGAAGAGGCCCUGUCCC”: the target inhibition in the data set with ICAM1 came to 52%.

With “sense CGGAUGCCAGCUUGGGCAC / antisense GUGCCCAAGCUGGCAUCCG”, in the data set with ICAM1, the target inhibition was 24%.

“sense AAGAAGGAGCUGGAGAAGA / antisense UCUUCUCCAGCUCCUUCUU”: in the data set with LMNA, the target inhibition came out at 87%.

On to “sense CCAGACUUCCUUUGUGUUA / antisense UAACACAAAGGAAGUCUGG”, for which, in the data set with ICAM1, the target inhibition was found to be 48%.

For “sense GUGGCCAUGCGCAAGCUGG / antisense CCAGCUUGCGCAUGGCCAC”, the target inhibition with LMNA worked out at 74%.

With “sense AGCUGGAGAAGACUUAUUC / antisense GAAUAAGUCUUCUCCAGCU”, the target inhibition in the data set with LMNA is 96%.

As for “sense GGAGCUGGAGAAGACUUAU / antisense AUAAGUCUUCUCCAGCUCC”, the target inhibition with LMNA was 95%.

As for “sense UGCAGCAGCAGCUGGACGA / antisense UCGUCCAGCUGCUGCUGCA”, the target inhibition with LMNA was found to be 92%.

Regarding “sense UGCCAGGCAGUCUGCUGAG / antisense CUCAGCAGACUGCCUGGCA”, the target inhibition with LMNA was 81%.

In the case of “sense AGCAGUAUAAGAAGGAGCU / antisense AGCUCCUUCUUAUACUGCU”, in the data set with LMNA, the target inhibition turned out to be 84%.

As for “sense UCCAUAGACAUGUGUAGCA / antisense UGCUACACAUGUCUAUGGA”, the target inhibition with ICAM1 was found to be 63%.

As for “sense GGGCAUUGUCCUCAGUCAG / antisense CUGACUGAGGACAAUGCCC”, in the data set with ICAM1, the target inhibition was 62%.

As for “sense CUGCUCUCAGUGAGAAGCG / antisense CGCUUCUCACUGAGAGCAG”, the target inhibition with LMNA amounted to 88%.

Turning to “sense GGCACAGAACACCUGGGGC / antisense GCCCCAGGUGUUCUGUGCC”, the target inhibition with LMNA came to 86%.

As to “sense GAAGGAGCUGGAGAAGACU / antisense AGUCUUCUCCAGCUCCUUC”, the target inhibition in the data set with LMNA turned out to be 93%.

Consider “sense UGACGGAUGCCAGCUUGGG / antisense CCCAAGCUGGCAUCCGUCA”, for which, in the data set with ICAM1, the target inhibition is 29%.

“sense CAGUAUAAGAAGGAGCUGG / antisense CCAGCUCCUUCUUAUACUG”: the target inhibition with LMNA came to 95%.

Take “sense GCCUGCGUACGGCUCUCAU / antisense AUGAGAGCCGUACGCAGGC”: the target inhibition with LMNA came out at 97%.

For the substance “sense GCCACACUGAACAGAGUGG / antisense CCACUCUGUUCAGUGUGGC”, in the data set with ICAM1, the target inhibition stood at 21%.

With “sense AGUAUAAGAAGGAGCUGGA / antisense UCCAGCUCCUUCUUAUACU”, the target inhibition with LMNA was 95%.

Regarding “sense GGACCUGCAGGAGCUCAAU / antisense AUUGAGCUCCUGCAGGUCC”, the target inhibition with LMNA is 45%.

“sense AGAAGGAGCUGGAGAAGAC / antisense GUCUUCUCCAGCUCCUUCU”: the target inhibition with LMNA amounted to 96%.

“sense CCCGCUCCUACCUCCUGGG / antisense CCCAGGAGGUAGGAGCGGG”: the target inhibition with LMNA was 71%.

For the substance “sense UAAGAAGGAGCUGGAGAAG / antisense CUUCUCCAGCUCCUUCUUA”, the target inhibition in the data set with LMNA stood at 67%.

Turning to “sense CCAUGAGGACAUACAACUG / antisense CAGUUGUAUGUCCUCAUGG”, the target inhibition with ICAM1 was 58%.

Turning to “sense GCUCAAGUGUCUAAAGGAU / antisense AUCCUUUAGACACUUGAGC”, the target inhibition with ICAM1 is 40%.

As to “sense GGAGCUUCGUGUCCUGUAU / antisense AUACAGGACACGAAGCUCC”, in the data set with ICAM1, the target inhibition worked out at 58%.

Regarding “sense ACACUGCAGGAGAGUGCCU / antisense AGGCACUCUCCUGCAGUGU”, the target inhibition with ICAM1 is 0%.

As for “sense GGUCCUAGAGGUGGACACG / antisense CGUGUCCACCUCUAGGACC”, the target inhibition with ICAM1 was determined as 10%.

On to “sense GGUCUCUGGCCUCACGGAG / antisense CUCCGUGAGGCCAGAGACC”, for which the target inhibition in the data set with ICAM1 was 7%.

Take “sense CCAUGAAACCGAACACACA / antisense UGUGUGUUCGGUUUCAUGG”: the target inhibition with ICAM1 worked out at 59%.

For “sense AAGGAGCUGGAGAAGACUU / antisense AAGUCUUCUCCAGCUCCUU”, the target inhibition in the data set with LMNA came out at 91%.

On to “sense AGCGCAAACUGGAGUCCAC / antisense GUGGACUCCAGUUUGCGCU”, for which the target inhibition with LMNA is 98%.

In the case of “sense AGGAGCUGGAGAAGACUUA / antisense UAAGUCUUCUCCAGCUCCU”, the target inhibition with LMNA was 98%.

Consider “sense UAACCCUUUGGUUUUUUUC / antisense GAAAAAAACCAAAGGGUUA”, for which the target inhibition with LMNA turned out to be 52%.

As to “sense GCAGUAUAAGAAGGAGCUG / antisense CAGCUCCUUCUUAUACUGC”, the target inhibition with LMNA was determined as 82%.

In the case of “sense GCUGGAGAAGACUUAUUCU / antisense AGAAUAAGUCUUCUCCAGC”, the target inhibition with LMNA is 96%.

As for “sense UCACAGGUUCAGAGAUUAC / antisense GUAAUCUCUGAACCUGUGA”, the target inhibition with ICAM1 worked out at 34%.
